Laboratory results taken from US8580815B2, “Derivatives of azaindoles as inhibitors of protein kinases ABL and SRC” (Oribase Pharma, priority 2009, dated 2013).
Read-outs that look alike come from different tables or passages of the source.

Key:
[1] = system: K562 cells expressing kinase Bcr-AbI; details: known activity; BCR-Abl+ cells, patient with CML; cited from earlier work
[2] = system: K562 cells expressing kinase Bcr-AbI; assay: Inhibition of cellular proliferation (MTT), K562 cells; assay type: cell-based, human; details: for IC50: Homo sapiens
Protocol: Cellular tests were carried out at the Montpellier Cancer Research Centre. The inhibition of proliferation by our compounds was analysed on 2 cell lines (U937 and K562) by calculating the IC50, testing 6 concentrations in triplicate for each of the compounds and for each line.
Cells in exponential phase were seeded in 96-well plates at a concentration of 10^4 cells/100 μL/well. The final concentrations of compound in the well in contact with the cells were 0.1; 0.3; 0.9; 3.3; 10; 30; 90 μM. […]

PDGFRα kinase (h) = PDGFRα kinase (h) (Homo sapiens (Human), UniProt P16234); assay: Cerep kinase profiling, HTRF assay, PDGFRα kinase; assay type: biochemical; details: compound incubated at 10 μM; read-out: Percentage inhibition of kinase PDGFR-α
PDGFRα kinase (h), sequence (P16234 24-1089): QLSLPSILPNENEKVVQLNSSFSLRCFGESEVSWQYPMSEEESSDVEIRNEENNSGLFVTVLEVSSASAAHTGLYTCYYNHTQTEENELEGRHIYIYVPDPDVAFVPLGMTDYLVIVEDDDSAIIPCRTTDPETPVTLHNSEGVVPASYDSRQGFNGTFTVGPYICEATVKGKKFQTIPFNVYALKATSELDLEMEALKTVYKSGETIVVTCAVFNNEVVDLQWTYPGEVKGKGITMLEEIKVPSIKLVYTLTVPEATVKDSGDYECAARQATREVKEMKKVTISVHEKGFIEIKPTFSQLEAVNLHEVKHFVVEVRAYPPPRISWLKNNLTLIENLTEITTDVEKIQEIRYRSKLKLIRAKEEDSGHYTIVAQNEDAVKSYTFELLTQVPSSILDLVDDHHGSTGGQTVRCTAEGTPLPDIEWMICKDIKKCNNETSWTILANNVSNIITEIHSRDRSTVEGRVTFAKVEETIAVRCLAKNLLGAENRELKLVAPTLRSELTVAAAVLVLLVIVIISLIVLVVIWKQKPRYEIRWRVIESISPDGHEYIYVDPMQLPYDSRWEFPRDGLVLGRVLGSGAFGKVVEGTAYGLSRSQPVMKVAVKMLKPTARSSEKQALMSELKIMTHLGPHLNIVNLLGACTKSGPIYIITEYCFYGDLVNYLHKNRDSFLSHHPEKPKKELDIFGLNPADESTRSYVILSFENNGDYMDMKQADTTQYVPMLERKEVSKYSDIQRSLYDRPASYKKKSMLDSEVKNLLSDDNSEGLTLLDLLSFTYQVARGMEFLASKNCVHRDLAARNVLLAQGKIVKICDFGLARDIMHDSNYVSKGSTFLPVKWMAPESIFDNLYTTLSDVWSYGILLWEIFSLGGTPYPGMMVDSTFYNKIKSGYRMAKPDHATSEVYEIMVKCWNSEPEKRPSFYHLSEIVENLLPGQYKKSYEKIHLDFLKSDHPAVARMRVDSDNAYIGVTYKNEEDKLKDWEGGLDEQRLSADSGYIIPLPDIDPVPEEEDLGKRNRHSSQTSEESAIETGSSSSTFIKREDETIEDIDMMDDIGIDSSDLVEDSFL
Protocol: (§1) The inhibitory activity of the compounds of the chemical series on different protein kinases was evaluated by Cerep (Cerep Kinase Profiling Service; www.cerep.com). The kinases used in the tests in vitro are human recombinant proteins expressed in human cells, insect cells or in bacteria. [table] […] The activity of the kinase was then detected by an HTRF assay. The HTRF assay (CisBio International) is based on fluorescence transfer, using Europium (Eu3+) cryptate and XL665 respectively as donor and acceptor. When the biotinylated or tagged substrate is phosphorylated by the kinase, it reacts with a cryptate-labelled phosphospecific antibody. Addition of Streptavidin-XL665, SA-XL665, (or anti-tag antibody XL665) leads to juxtaposition of the cryptate and of the fluorophore XL665, which is reflected in fluorescence resonance energy transfer (FRET). The intensity of FRET depends on the quantity of cryptate-labelled antibody bound to the substrate, which is proportional to the quantity of phosphorylated substrate (Mathis, G. Probing molecular interactions with homogeneous techniques based on rare earth cryptates and fluorescence energy transfer. Clin Chem 41, 1391-7 (1995)).

Abl kinase (h) = Abl kinase (h) (Homo sapiens (Human), UniProt P00519); assay: Cerep kinase profiling, HTRF assay, Abl kinase; assay type: biochemical
Protocol: as §1, with “bacteria.” for “bacteria. [table]”, “transfer.” for “transfer. Clin Chem 41, 1391-7 (1995)).”

c-kit kinase (h) = c-kit kinase (h) (Homo sapiens (Human), UniProt P10721); assay: Cerep kinase profiling, HTRF assay, c-kit kinase; assay type: biochemical; details: compound incubated at 10 μM; read-out: Percentage inhibition of kinase c-kit
c-kit kinase (h), sequence (P10721 26-976): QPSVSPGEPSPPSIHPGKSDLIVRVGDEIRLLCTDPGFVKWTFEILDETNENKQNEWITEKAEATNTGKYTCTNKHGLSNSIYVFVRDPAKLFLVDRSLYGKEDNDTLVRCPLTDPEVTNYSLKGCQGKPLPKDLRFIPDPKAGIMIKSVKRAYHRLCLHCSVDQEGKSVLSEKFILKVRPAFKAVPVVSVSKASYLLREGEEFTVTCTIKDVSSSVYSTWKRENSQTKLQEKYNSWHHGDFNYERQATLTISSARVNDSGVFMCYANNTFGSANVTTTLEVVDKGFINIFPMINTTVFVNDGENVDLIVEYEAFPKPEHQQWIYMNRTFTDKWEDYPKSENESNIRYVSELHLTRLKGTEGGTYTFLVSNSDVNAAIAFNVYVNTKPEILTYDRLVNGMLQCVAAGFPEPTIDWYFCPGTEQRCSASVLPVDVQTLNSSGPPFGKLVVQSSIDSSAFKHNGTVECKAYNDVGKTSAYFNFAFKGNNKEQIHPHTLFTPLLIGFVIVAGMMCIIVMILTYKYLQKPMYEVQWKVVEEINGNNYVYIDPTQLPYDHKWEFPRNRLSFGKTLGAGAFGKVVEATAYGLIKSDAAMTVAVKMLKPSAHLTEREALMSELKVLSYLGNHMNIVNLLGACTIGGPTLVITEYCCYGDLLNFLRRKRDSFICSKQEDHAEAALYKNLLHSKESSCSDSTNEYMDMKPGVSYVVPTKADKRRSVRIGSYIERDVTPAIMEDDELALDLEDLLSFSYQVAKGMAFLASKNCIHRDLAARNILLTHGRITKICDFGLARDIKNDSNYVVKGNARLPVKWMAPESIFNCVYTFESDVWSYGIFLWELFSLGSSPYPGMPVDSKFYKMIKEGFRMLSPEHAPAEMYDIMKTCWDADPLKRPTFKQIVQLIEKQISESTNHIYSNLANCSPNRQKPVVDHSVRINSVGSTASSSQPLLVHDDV
Protocol: as §1

U937 cells (BCR-Abl−) [3] = assay: cells; details: Homo sapiens, U-937, 72 h
Src kinase (h) = Src kinase (h) (Homo sapiens (Human), UniProt P12931); assay: Cerep kinase profiling, HTRF assay, Src kinase; assay type: biochemical
Src kinase (h), sequence (P12931 whole entry, looked up): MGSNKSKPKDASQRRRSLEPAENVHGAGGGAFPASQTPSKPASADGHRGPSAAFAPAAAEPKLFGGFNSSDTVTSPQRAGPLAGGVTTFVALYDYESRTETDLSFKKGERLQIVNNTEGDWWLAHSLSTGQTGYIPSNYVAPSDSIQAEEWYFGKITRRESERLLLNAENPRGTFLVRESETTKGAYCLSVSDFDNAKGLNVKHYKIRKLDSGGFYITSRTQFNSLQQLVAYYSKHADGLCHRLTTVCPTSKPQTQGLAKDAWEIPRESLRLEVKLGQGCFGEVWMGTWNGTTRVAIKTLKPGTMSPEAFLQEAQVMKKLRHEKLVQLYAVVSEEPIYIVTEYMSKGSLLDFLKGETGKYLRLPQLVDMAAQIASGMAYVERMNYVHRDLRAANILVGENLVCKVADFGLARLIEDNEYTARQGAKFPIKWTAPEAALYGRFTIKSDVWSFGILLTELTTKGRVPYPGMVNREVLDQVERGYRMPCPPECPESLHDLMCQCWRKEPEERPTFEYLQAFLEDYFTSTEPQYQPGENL
Protocol: as §1, with “bacteria.” for “bacteria. [table]”, “transfer.” for “transfer. Clin Chem 41, 1391-7 (1995)).”

AurA/Aur2 kinase (h) = AurA/Aur2 kinase (h) (Homo sapiens (Human), UniProt O14965); assay: Cerep kinase profiling, HTRF assay, Aurora-A kinase; assay type: biochemical; details: compound incubated at 10 μM; read-out: Percentage inhibition of kinase Aurora-A
AurA/Aur2 kinase (h), sequence (O14965 whole entry): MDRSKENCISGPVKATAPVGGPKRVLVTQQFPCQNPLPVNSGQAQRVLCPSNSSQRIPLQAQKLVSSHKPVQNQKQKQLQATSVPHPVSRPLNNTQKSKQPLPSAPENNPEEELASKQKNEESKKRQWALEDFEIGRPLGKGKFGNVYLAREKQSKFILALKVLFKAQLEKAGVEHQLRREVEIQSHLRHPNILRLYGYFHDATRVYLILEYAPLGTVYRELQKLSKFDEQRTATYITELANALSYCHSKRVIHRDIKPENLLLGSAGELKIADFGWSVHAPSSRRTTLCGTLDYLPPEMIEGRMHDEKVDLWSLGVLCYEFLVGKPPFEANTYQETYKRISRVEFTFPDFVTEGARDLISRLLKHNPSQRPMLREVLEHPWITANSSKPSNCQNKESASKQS
Protocol: as §1

U937 cells (BCR-Abl−) [4] = system: U937 cells (BCR-Abl−)
Abl T315I = Abl T315I (Homo sapiens (Human), UniProt P00519, T315I); assay: Reaction Biology Corp. kinase assay, mutated Abl T315I; assay type: biochemical; details: Table 11; ATP at 10 μM; read-out: IC50 in nM Abl T315I
Protocol: (§2) 4 compounds were tested for their capacity to inhibit various mutated kinases AbI (American company, Reaction Biology Corp.).

Abl WT = Abl WT (Homo sapiens (Human), UniProt P00519); assay: Reaction Biology Corp. kinase assay, Abl WT; assay type: biochemical; details: Table 11; ATP at 10 μM; read-out: IC50 in nM Abl WT
Protocol: as §2

Abl Y253F = Abl Y253F (Homo sapiens (Human), UniProt P00519, Y253F); assay: Reaction Biology Corp. kinase assay, mutated Abl Y253F; assay type: biochemical; details: Table 11; ATP at 10 μM
Protocol: as §2

[5] = K562, 72 h, read-out: IC50 at 72 h on K562 (category), 72 h incubation
[6] = 10 μM, compounds tested by Cerep, read-out: % inhibition of kinase activity, Abl WT (category)
[7] = Table 6, compound incubated at 10 μM, read-out: Percentage inhibition of kinase Abl
[8] = Table 8, compound incubated at 10 μM, read-out: Percentage inhibition of kinase Abl
[9] = 10 μM, compounds tested by Cerep, read-out: % inhibition of kinase activity, Src (category)
[10] = compound incubated at 10 μM, read-out: Percentage inhibition of kinase c-Src
[11] = Table 9, Cerep, 5 concentrations 10^−10 M to 10^−4 M, read-out: IC50 in M Abl
[12] = compounds tested by Cerep, read-out: IC50 on kinase Abl WT (category)

| SMILES | IC50 [2, 5] | inhibition at 10 µM (PDGFRα kinase (h)) | inhibition at 10 µM (Abl kinase (h); [6]) | inhibition at 10 µM (Abl kinase (h); [7]) | inhibition at 10 µM (Abl kinase (h); [8]) | inhibition at 10 µM (c-kit kinase (h)) | inhibition at 10 µM (Src kinase (h); [9]) | inhibition at 10 µM (Src kinase (h); [10]) | inhibition at 10 µM (AurA/Aur2 kinase (h)) | IC50 (Abl kinase (h); [11]) | IC50 (Abl kinase (h); [12]) | other results |
| --- | --- | --- | --- | --- | --- | --- | --- | --- | --- | --- | --- | --- |
| Cc1ccc(NC(=O)c2ccc(CN3CCN(C)CC3)cc2)cc1Nc1nccc(-c2cccnc2)n1 [Imatinib] |  |  |  |  |  |  |  |  |  |  |  | Action of Imatinib on K562 [1]: Sensitive |
| CN(C)CCCNC(=O)c1cc2cc(NC(=O)c3ccccc3Br)cnc2[nH]1 [ND0009, 5-(2-bromobenzamido)-N-(3-(dimethylamino)propyl)-1H-pyrrolo[2,3-b]pyridine-2-carboxamide] | > 10 µM | 11% | > 50% | 100% | 100% | 44% | > 50% | 90% | 5% |  |  | activity on the Bcr-AbI+ cells (K562), in words [2]: active; IC50 ([2]; K562, 72 h, Table 12, 72 h of treatment, MTT, read-out: IC50 (μM) K562): 6 µM; IC50 ([2]; K562, incubation time not stated (24 h and/or 72 h), read-out: IC50 for the K562 Bcr-AbI kinase (category)): > 10 µM; IC50 (U937 cells (BCR-Abl−) [3]; read-out: IC50 (μM) U937, Table 12, 72 h of treatment, MTT): > 100 µM; IC50 (U937 cells (BCR-Abl−) [3]; read-out: IC50 at 72 h on U937 (category), 72 h incubation): > 10 µM; IC50 (Src kinase (h); Table 9, Cerep, read-out: IC50 in M c-Src): 2200 nM; IC50 (Src kinase (h); compound tested by Cerep, read-out: IC50 on kinase Src (category)): 100 to 10000 nM; activity on the Bcr-AbI− cells (U937), in words (U937 cells (BCR-Abl−) [4]): not on the Bcr-AbI− cells |
| COC(=O)c1cc2cc(NC(=O)c3ccccc3Br)cnc2[nH]1 [ND0020, Methyl 5-(2-bromobenzamido)-1H-pyrrolo[2,3-b]pyridine-2-carboxylate] | 1 to 10 µM | 0% | > 50% | 85% | 85% | 10% | > 50% | 50% | 5% | 460 nM | 100 to 10000 nM | IC50 ([2]; K562, 24 h, 24 h incubation, read-out: IC50 at 24 h on K562 (category)): 1 to 10 µM; IC50 (Abl T315I): > 100000 nM; IC50 (Abl WT): 44.6 nM; IC50 (Abl Y253F): < 10 nM |
| O=C(Nc1cnc2[nH]c(CNc3ccc(O)cc3)cc2c1)c1ccccc1Br [ND0038] |  |  | > 50% | 94% | 94% |  | > 50% | 71% |  | 2600 nM | 100 to 10000 nM |  |
| COC(=O)c1cc2cc(NC(=O)c3c(F)cccc3OC)cnc2[nH]1 [ND0047, Methyl 5-(2-fluoro-6-methoxybenzamido)-1H-pyrrolo[2,3-b]pyridine-2-carboxylate] |  |  | > 50% | 94% | 94% |  | > 50% | 74% |  |  |  |  |
